Reference: patent publication US5135847A, “Substrate composition for alkaline phosphatase and method for assay using same” (Becton, Dickinson and Company, priority 1988, dated 1992)

Key:
[1] = system: bovine liver alkaline phosphatase; assay: Accelerated stability in various pH 9.8 buffers at 45° C.; functional inhibitor measured by inhibition of bovine liver alkaline phosphatase; type: physicochemical; conditions: for Percent of Functional Levamisole Remaining: 45° C., Day 0
Protocol: Various buffers were prepared at 100 mM concentrations, containing 1 mM magnesium chloride, and adjusted to pH 9.8. […] (accelerated decomposition study). […] Bovine liver AP was added and the reaction kinetics were followed at 405 nm.

AP from the intestine = conditions: intestinal versus nonintestinal AP; cited from earlier work
[2] = system: AP from several mammalian tissue types; conditions: cited from earlier work
[3] = pH 7.9 versus pH 2; cited from earlier work
[4] = system: bovine liver alkaline phosphatase; assay: Potency as alkaline phosphatase inhibitor relative to levamisole; type: biochemical

| SMILES | Percent of Functional Levamisole Remaining ([1]; AMP buffer 100 mM, 1 mM magnesium chloride, pH 9.8, 1 mM levamisole) [%] | Percent of Functional Levamisole Remaining ([1]; AMPD buffer 100 mM, 1 mM magnesium chloride, pH 9.8, 1 mM levamisole) [%] | Percent of Functional Levamisole Remaining ([1]; Carbonate buffer 100 mM, 1 mM magnesium chloride, pH 9.8, 1 mM levamisole) [%] | Percent of Functional Levamisole Remaining ([1]; Diethanolamine buffer 100 mM, 1 mM magnesium chloride, pH 9.8, 1 mM levamisole) [%] | Percent of Functional Levamisole Remaining ([1]; Glycine buffer 100 mM, 1 mM magnesium chloride, pH 9.8, 1 mM levamisole) [%] | Percent of Functional Levamisole Remaining ([1]; Triethanolamine buffer 100 mM, 1 mM magnesium chloride, pH 9.8, 1 mM levamisole) [%] | stability in AMPD and particularly in AMP compared with other buffers ([1]; pH 9.8, 45° C.) | less potent toward AP from the intestine than toward AP from several mammalian tissue types (AP from the intestine) | inhibition of AP from several mammalian tissue types [2] | decomposed faster at pH 7.9 than at pH 2 [3] [times] | Percent of Functional Levamisole Remaining ([1]; AMP buffer, pH 9.8, 0.1 mM p-bromolevamisole) [%] | Percent of Functional Levamisole Remaining ([1]; AMPD buffer, pH 9.8, 0.1 mM p-bromolevamisole) [%] | Percent of Functional Levamisole Remaining ([1]; Carbonate buffer, pH 9.8, 0.1 mM p-bromolevamisole) [%] | Percent of Functional Levamisole Remaining ([1]; Diethanolamine buffer, pH 9.8, 0.1 mM p-bromolevamisole) [%] | Percent of Functional Levamisole Remaining ([1]; Glycine buffer, pH 9.8, 0.1 mM p-bromolevamisole) [%] | Percent of Functional Levamisole Remaining ([1]; Triethanolamine buffer, pH 9.8, 0.1 mM p-bromolevamisole) [%] | decomposition compared with the parent compound (levamisole) ([1]; pH 9.8, 45° C.) | more potent than levamisole [4] |
| --- | --- | --- | --- | --- | --- | --- | --- | --- | --- | --- | --- | --- | --- | --- | --- | --- | --- | --- |
| c1ccc([C@H]2CN3CCSC3=N2)cc1 [levamisole, (-)2,3,5,6-tetrahydro-6-phenylimidazo[1,2-b]thiazole] | 100 | 100 | 100 | 100 | 100 | 100 | substantially greater | approximately 100 fold | potent inhibitor | 70 | – | – | – | – | – | – | – | – |
| Brc1ccc([C@H]2CN3CCSC3=N2)cc1 [p-bromolevamisole] | – | – | – | – | – | – | – | – | – | – | 100 | 100 | 100 | 100 | 100 | 100 | quite a bit faster | approximately 10 fold |
